{"source": "patent US20140259881A1", "about": "“EXTERMINATION TECHNIQUES UTILIZING TERMITE EGG VOLATILE CALLING PHEROMONE AND QUEEN PHEROMONE” (National University Corporation Okayama University, priority 2009, published 2014)", "key": {"termite": {"system": "termite", "conditions": "patent documents 2 and 3; cited from earlier work"}, "[1]": {"system": "Reticulitermes speratus worker termites", "experiment": "Rate of carrying mimic eggs coated with reference pheromone plus volatile test sample into the egg mass", "assay_type": "in vivo", "conditions": "10% aqueous solution of sample added to lysozyme + β-glucosidase reference pheromone on 0.5 mm glass beads, 25° C., compared to no addition, Tukey-Kramer HSD test", "protocol": "2.0 mg of white-egg lysozyme and 1.0 mg of β-glucosidase were dissolved in a 50% aqueous solution of glycerol (a mixture of lysozyme and β-glucosidase). To this reference pheromone solution were added a 10% aqueous solution of each of the following volatile ingredient samples to examine the effect of enhancing the activity of carrying mimic eggs. The added samples were: butyl butyrate, 1-butanol, 2-butyl butyrate, 2-butanol, 2-methyl-1-butanol, and n-butyl acetate.\nTo 100 glass beads having a diameter of 0.5 mm were added 2.0 μL/bead of the above-described reference pheromone solution and 2.0 μL/bead of each of the test sample solutions and mixed well for coating the surface of the beads with each test sample.\nAt 24 hours after the start of the experiment, the rate of carrying mimic eggs into the egg mass was determined (for each of the test samples, experiments were made on the same procedures). Three repetitions were made for each treatment. Carrying rates were subjected to arcsine-root transformation, followed by statistical comparison by analysis of variance and Tukey-Kramer HSD test. […] FIGS. 6 to 11 show rates of carrying mimic eggs coated with each of the test samples into the egg mass after 24 hours."}, "[2]": {"system": "Reticulitermes speratus worker termites", "experiment": "Inhibitory effect on the differentiation into new termite queens by queen volatile pheromone samples", "conditions": "volatile from unglazed ball, added every day; 25 days; 25° C.; compared to controls; Tukey-Kramer HSD test"}, "[3]": {"system": "Reticulitermes speratus worker termites", "experiment": "Rate of carrying mimic eggs coated with reference pheromone plus volatile test sample into the egg mass", "assay_type": "in vivo", "conditions": "preliminary experiments"}}, "note": "“Also recorded” adds a separate entry of the source."}
{"compound": "lysozyme", "values": [{"measurement": "egg-recognition pheromone activity alone", "setting": "termite", "result": "demonstrated to have egg-recognition pheromone activity alone"}]}
{"compound": "CCCC(=O)OC(C)CC", "note": "(stereo not drawn) [2-butyl butyrate]", "values": [{"measurement": "activity of carrying mimic eggs / egg recognition activity (rate of carrying mimic eggs after 24 hours)", "setting": "[1]", "result": "no statistical significance, but were observed to have a tendency to enhance the activity of carrying mimic eggs; also recorded: enhance the activity of carrying mimic eggs, as compared to no addition, but there was no difference of statistical significance"}]}
{"compound": "CCC(C)O", "note": "(stereo not drawn) [2-butanol]", "values": [{"measurement": "activity of carrying mimic eggs / egg recognition activity (rate of carrying mimic eggs after 24 hours)", "setting": "[1]", "result": "remarkable increase in the egg recognition activity; also recorded: significantly enhance the activity of carrying mimic eggs"}]}
{"compound": "CCCCOC(C)=O", "note": "[n-butyl acetate, reference compound]", "values": [{"measurement": "activity of carrying mimic eggs / egg recognition activity (rate of carrying mimic eggs after 24 hours)", "setting": "[1]", "result": "no effect of enhancing the activity of carrying mimic eggs"}, {"measurement": "differentiation from worker termite into new termite queens", "setting": "[2]", "result": "no effect of inhibiting the differentiation into new termite queens"}]}
{"compound": "CCCCO", "note": "[1-butanol]", "values": [{"measurement": "activity of carrying mimic eggs / egg recognition activity (rate of carrying mimic eggs after 24 hours)", "setting": "[1]", "result": "remarkable increase in the egg recognition activity; also recorded: significantly enhance the activity of carrying mimic eggs"}]}
{"compound": "CCC(C)CO", "note": "(stereo not drawn) [2-methyl-1-butanol]", "values": [{"measurement": "activity of carrying mimic eggs / egg recognition activity (rate of carrying mimic eggs after 24 hours)", "setting": "[1]", "result": "remarkable increase in the egg recognition activity; also recorded: significantly enhance the activity of carrying mimic eggs"}]}
{"compound": "CCCC(=O)O", "note": "[butyric acid]", "values": [{"measurement": "effect of increasing the egg-carrying activity", "setting": "[3]", "result": "no effect of increasing the egg-carrying activity"}]}
{"compound": "CCCCOC(=O)CCC", "note": "[butyl butyrate]", "values": [{"measurement": "activity of carrying mimic eggs / egg recognition activity (rate of carrying mimic eggs after 24 hours)", "setting": "[1]", "result": "no statistical significance, but were observed to have a tendency to enhance the activity of carrying mimic eggs; also recorded: enhance the activity of carrying mimic eggs, as compared to no addition, but there was no difference of statistical significance"}]}
